According to publication PMC7217877, “N-AS-triggered SPMs are direct regulators of microglia in a model of Alzheimer’s disease” (Nature Communications, 2020):
Values joined by “and” are separate entries in the source; they are usually repeats but may differ in a detail not shown here. Equal entries are not always repeated.

What was measured:
[1] = system: APP/PS1 mice; experiment: mRNA levels of NEP, MMP9, IDE, CD36 in microglia (Supplementary Fig 5c); assay type: in vivo, mouse; design: CD36 mRNA level in microglia / NEP mRNA level in microglia / MMP9 mRNA level in microglia / IDE mRNA level in microglia: scale not given here
Experimental: Transgenic mouse lines over-expressing the hAPP695swe (APP) and presenilin-1M146V (PS1) mutations were originated from GlaxoSmithKline (Harlow, UK)[32] and maintained as described previously. We purchased 5×FAD mice from Jackson Labs (Stock number. 34840-JAX). Because APP/PS1 and 5xFAD mice show sex differences in disease progression, we used only male mice. To examine possible therapeutic effect of N-AS and aspirin in APP/PS1 mice, the N-AS (30 mg kg^−1, Sigma-Aldrich, 01912) was injected daily s.c. for 8 weeks to 7-months-old APP/PS1 mice until the age of 9 months, and aspirin (2 mg kg^−1, Sigma-Aldrich, A5376)[33] was administrated orally to 7-months-old APP/PS1 mice for 8 weeks. Also, to confirm possible therapeutic efficacy of N-AS in 5×FAD, the N-AS (30 mg kg^−1, Sigma-Aldrich, 01912) was injected daily s.c. for 4 weeks to 3-months-old 5×FAD mice until the age of 4 months. Block randomization method was used to allocate the animals to experimental groups. To eliminate the bias, we were blinded in experimental progress such as data collection and data analysis. Mice were housed at temperature of 22 °C and a 12 h day/12 h night cycle with free access to tap water and food pellets. All protocols were approved by the Kyungpook National University Institutional Animal Care and Use Committee.
For total RNA extraction from the microglia derived from WT, APP/PS1, APP/PS1 mice treated with N-AS, and APP/PS1 mice treated with aspirin, the cells were isolated from the cortex of WT, APP/PS1, APP/PS1 mice treated with N-AS, or aspirin using the methods described above. Total RNA was isolated using the kit components according to the manufacturer’s instructions (RNeasy mini kit, 74134, QIAGEN). cDNA was synthesized from 5 μg of total RNA using a commercially available kit (Takara). Quantitative real-time PCR was performed using a Corbett research RG-6000 real-time PCR instrument. Primers are described in Supplementary Table 5.

[2] = biological target: T1, CYP 1A2 (Homo sapiens, UniProt P05177); experiment: cytochrome P450 inhibition in human liver microsomes; assay type: in vitro ADME
T1 construct: from tissue; host or cells: human liver microsomes
Experimental: (§1) A 10 μl aliquot of this solution was then diluted using 90 μl of 100 mM potassium phosphate buffer (pH 7.4). Probe substrate cocktail solutions for seven major cytochrome P450 isozymes (phenacetin (100 μM for 1A2), bupropion (50 μM for 2B6), diclofenac (20 μM for 2C9), mephenytoin (100 μM for 2C19), dextromethorphan (5 μM for 2D6), chlorzoxazone (50 μM for 2E1), and midazolam (5 μM for 3A4)) were prepared with phosphate buffer. […] Reactions were stopped at 15 min by the addition of 200 μl cold acetonitrile (containing propranolol as internal standard at 20 ng ml^−1) and centrifuged at 17,968×g for 10 min. A 2 μl aliquot of the supernatant was injected into the LC-MS/MS system. The ratio of peak area of test compound /internal standard was used to determine the % metabolic activity of probe substrate according to the concentrations of N-AS added.

[3] = biological target: T2, CYP 2B6 (Homo sapiens, UniProt P20813); experiment: as above; assay type: in vitro ADME
T2 construct: from tissue; host or cells: human liver microsomes
Experimental: as §1

[4] = biological target: T3, CYP 2C19 (Homo sapiens, UniProt P33261); experiment: as above; assay type: in vitro ADME
T3 construct: from tissue; host or cells: human liver microsomes
Experimental: as §1

[5] = biological target: T4, CYP 2C9 (Homo sapiens, UniProt P11712); experiment: as above; assay type: in vitro ADME
T4 construct: from tissue; host or cells: human liver microsomes
Experimental: as §1

[6] = biological target: T5, CYP 2D6 (Homo sapiens, UniProt P10635); experiment: as above; assay type: in vitro ADME
T5 construct: from tissue; host or cells: human liver microsomes
Experimental: as §1

[7] = biological target: T6, CYP 2E1 (Homo sapiens, UniProt P05181); experiment: as above; assay type: in vitro ADME
T6 construct: from tissue; host or cells: human liver microsomes
Experimental: as §1

[8] = biological target: T7, CYP 3A4 (Homo sapiens, UniProt P08684); experiment: as above; assay type: in vitro ADME
T7 construct: from tissue; host or cells: human liver microsomes
Experimental: as §1

[9] = APP/PS1 + N-AS, individual values, sFig 5c

T2 sequence (P20813 whole entry): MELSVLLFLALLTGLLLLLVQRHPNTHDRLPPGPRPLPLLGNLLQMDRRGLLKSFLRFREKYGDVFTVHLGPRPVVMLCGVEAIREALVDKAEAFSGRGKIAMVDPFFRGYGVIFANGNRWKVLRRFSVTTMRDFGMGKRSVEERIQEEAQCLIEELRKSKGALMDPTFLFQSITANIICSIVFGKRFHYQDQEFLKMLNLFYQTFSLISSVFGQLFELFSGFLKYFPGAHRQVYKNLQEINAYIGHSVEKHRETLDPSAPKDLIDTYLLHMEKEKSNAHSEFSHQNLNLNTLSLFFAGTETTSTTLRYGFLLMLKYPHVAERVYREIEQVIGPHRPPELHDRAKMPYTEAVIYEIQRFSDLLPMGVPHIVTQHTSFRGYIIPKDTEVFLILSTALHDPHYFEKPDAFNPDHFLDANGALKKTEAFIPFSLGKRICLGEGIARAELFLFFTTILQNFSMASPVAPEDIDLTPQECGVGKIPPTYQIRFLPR
T6 sequence (P05181 whole entry): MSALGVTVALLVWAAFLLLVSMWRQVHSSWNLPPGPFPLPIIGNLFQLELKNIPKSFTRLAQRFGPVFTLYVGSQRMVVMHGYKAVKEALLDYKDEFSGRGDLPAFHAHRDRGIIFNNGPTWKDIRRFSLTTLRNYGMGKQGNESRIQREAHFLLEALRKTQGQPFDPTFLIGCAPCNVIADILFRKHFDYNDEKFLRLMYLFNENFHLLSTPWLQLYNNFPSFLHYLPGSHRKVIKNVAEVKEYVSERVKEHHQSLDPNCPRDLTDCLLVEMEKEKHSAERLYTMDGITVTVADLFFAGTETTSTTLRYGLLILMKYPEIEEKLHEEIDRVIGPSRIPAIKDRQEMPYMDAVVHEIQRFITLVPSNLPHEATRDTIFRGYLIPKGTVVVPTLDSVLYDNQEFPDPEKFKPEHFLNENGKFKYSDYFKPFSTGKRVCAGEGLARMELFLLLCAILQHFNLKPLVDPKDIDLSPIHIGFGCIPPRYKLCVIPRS
T7 sequence (P08684 whole entry): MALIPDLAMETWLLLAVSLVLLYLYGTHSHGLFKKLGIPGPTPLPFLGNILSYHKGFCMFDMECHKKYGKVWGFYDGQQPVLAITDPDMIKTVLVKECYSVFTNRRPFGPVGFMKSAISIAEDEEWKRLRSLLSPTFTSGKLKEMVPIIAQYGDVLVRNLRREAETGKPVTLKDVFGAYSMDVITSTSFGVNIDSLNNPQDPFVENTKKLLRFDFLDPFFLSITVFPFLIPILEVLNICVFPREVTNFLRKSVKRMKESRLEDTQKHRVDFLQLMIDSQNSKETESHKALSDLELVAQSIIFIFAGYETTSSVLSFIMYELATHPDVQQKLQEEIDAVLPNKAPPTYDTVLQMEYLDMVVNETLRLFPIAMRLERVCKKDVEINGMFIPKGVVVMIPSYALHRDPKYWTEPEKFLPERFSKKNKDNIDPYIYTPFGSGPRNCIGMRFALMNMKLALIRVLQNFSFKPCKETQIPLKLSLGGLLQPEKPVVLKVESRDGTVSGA
T1 sequence (P05177 whole entry): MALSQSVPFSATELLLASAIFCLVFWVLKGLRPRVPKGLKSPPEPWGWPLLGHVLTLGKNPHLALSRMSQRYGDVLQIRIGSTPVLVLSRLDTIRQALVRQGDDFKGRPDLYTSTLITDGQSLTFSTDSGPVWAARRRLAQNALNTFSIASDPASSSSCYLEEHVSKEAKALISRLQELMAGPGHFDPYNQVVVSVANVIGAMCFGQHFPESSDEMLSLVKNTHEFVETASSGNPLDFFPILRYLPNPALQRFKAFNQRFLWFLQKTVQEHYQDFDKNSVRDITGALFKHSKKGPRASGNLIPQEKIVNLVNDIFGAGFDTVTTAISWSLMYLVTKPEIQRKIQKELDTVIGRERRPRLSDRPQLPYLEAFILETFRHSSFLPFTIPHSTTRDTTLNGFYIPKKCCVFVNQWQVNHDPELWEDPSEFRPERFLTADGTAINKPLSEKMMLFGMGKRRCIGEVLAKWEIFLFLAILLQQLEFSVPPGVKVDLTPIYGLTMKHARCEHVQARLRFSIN
T5 sequence (P10635 whole entry): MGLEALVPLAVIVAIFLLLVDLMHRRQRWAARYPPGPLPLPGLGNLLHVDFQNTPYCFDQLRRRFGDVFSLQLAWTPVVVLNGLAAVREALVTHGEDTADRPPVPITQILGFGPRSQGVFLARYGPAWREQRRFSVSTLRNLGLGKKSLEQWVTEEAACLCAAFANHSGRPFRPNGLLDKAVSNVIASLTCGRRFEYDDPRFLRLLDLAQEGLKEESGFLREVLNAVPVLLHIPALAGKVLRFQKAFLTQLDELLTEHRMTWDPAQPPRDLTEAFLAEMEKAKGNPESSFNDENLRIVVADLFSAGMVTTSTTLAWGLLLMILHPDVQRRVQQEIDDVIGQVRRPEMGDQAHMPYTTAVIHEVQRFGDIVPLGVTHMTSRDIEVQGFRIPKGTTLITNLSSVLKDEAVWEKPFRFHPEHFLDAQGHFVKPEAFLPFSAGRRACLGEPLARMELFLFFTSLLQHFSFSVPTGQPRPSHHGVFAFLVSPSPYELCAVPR
T4 sequence (P11712 whole entry): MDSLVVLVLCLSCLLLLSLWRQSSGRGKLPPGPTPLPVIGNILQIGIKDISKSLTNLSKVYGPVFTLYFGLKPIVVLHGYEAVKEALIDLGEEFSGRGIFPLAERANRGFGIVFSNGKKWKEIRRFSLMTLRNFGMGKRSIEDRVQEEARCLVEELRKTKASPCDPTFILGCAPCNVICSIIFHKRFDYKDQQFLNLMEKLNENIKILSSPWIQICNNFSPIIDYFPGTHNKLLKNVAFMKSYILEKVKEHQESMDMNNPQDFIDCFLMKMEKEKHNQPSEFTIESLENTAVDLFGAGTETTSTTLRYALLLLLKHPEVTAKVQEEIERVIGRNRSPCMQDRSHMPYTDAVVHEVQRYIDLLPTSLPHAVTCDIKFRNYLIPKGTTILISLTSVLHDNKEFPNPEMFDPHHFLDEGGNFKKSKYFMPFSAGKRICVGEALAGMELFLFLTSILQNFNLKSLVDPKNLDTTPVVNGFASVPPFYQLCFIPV
T3 sequence (P33261 whole entry): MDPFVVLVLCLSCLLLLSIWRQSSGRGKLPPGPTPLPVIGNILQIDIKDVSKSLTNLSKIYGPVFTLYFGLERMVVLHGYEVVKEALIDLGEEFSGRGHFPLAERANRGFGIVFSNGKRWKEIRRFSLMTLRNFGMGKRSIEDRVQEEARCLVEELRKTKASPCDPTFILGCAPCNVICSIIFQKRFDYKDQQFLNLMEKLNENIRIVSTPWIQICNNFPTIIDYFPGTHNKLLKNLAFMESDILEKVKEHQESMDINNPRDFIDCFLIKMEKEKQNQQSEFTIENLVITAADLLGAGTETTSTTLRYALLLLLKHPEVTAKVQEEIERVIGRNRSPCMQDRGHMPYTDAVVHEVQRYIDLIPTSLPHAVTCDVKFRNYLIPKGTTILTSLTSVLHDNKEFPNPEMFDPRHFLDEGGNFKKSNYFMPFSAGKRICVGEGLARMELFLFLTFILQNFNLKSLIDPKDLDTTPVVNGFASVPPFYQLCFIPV

IC50 [2]: > 10 µM | activity at 15 min, 25 µM ([2]; human, liver microsomes, pH 7.4, probe phenacetin, N-AS 25 µM, read-out: % of control at 25 µM): 94.6% | IC50 [3]: > 10 µM | activity at 15 min, 25 µM ([3]; human, liver microsomes, pH 7.4, probe bupropion, N-AS 25 µM, read-out: % of control at 25 µM): 92.7% | IC50 [4]: > 10 µM | activity at 15 min, 25 µM ([4]; human, liver microsomes, pH 7.4, probe mephenytoin, N-AS 25 µM, read-out: % of control at 25 µM): 79.6% | IC50 [5]: > 10 µM | activity at 15 min, 25 µM ([5]; human, liver microsomes, pH 7.4, probe diclofenac, N-AS 25 µM, read-out: % of control at 25 µM): 95.5% | IC50 [6]: > 10 µM | activity at 15 min, 25 µM ([6]; human, liver microsomes, pH 7.4, probe dextromethorphan, N-AS 25 µM, read-out: % of control at 25 µM): 104% | IC50 [7]: > 10 µM | activity at 15 min, 25 µM ([7]; human, liver microsomes, pH 7.4, probe chlorzoxazone, N-AS 25 µM, read-out: % of control at 25 µM): 84% | IC50 [8]: > 10 µM | activity at 15 min, 25 µM ([8]; human, liver microsomes, pH 7.4, probe midazolam, N-AS 25 µM, read-out: % of control at 25 µM): 114%
SMILES: CCCCCCCCCCCCC/C=C/[C@@H](O)[C@H](CO)NC(C)=O [N-AS, N-((2S,3R,E)-1,3-Dihydroxyoctadec-4-en-2-yl)acetamide]
CD36 mRNA level in microglia [1, 9]: 0.97 and 0.75 and 0.78 and 0.69 and 0.81 and 0.87 and 0.79 and 0.61 | IDE mRNA level in microglia [1, 9]: 0.68 and 0.56 and 0.55 and 0.48 and 0.82 and 0.81 and 0.71 and 0.78 and 0.77 | MMP9 mRNA level in microglia [1, 9]: 0.87 and 0.47 and 0.35 and 0.38 and 0.69 and 0.52 and 0.57 and 1.05 and 0.8 | NEP mRNA level in microglia [1, 9]: 0.96 and 0.5 and 0.52 and 0.57 and 0.56 and 0.59 and 0.64 and 0.85 and 0.88 | CD36 expression ([1]; APP/PS1 treated with N-AS): enhanced | expression of Aβ degrading enzymes (NEP, MMP9, IDE) ([1]; WT, APP/PS1 vehicle, APP/PS1 N-AS): remained unchanged between the groups
